Results from ChEMBL document CHEMBL3137667, “[Drug-induced liver injury; fourteenth updated edition of the bibliographic database of liver injuries and related drugs]” (Gastroenterol Clin Biol, 2004).

Key:
[1] = Highest frequency of moderate liver toxicity observed during clinical trials, expressed as a percentage. [column '% BIOL' in source]; conditions: human
[2] = Highest frequency of acute liver toxicity observed during clinical trials, expressed as a percentage. [column '% AIGUE' in source]; conditions: human
[3] = Presence of at least one case with successful reintroduction. [column 'REINT' in source]; conditions: human
[4] = Times to onset, minimal and maximal, observed in the indexed observations. [column 'DELAI' in source]; conditions: human
[5] = human, serum
[6] = human, serum; remark: listed apart in the source
[7] = human
[8] = human; remark: listed apart in the source
[9] = human; remark: listed apart in the source
[10] = human, serum, 4383 h
[11] = human; remark: listed apart in the source
[12] = human; remark: listed apart in the source
[13] = human; remark: listed apart in the source
[14] = human; remark: listed apart in the source
[15] = human; remark: listed apart in the source
[16] = human; remark: listed apart in the source
[17] = human; remark: listed apart in the source
[18] = Comments (NB not yet translated). [column 'COMMENTAIRES' in source]; conditions: human
[19] = Proposed mechanism(s) of liver damage. [column 'MEC' in source]; conditions: human
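For Hepatotoxicity (association with vascular disease) in this document: count of indexed literature references reporting vascular liver injury in humans, e.g. peliosis hepatitis, hepatic veno-occlusive disease or Budd-Chiari syndrome.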
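For Hepatotoxicity (benign tumour) in this document: value is a count of indexed literature references citing a benign tumour confirmed by histopathology.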
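For Hepatotoxicity (choleostasis) in this document: human cholestatic liver injury, shown by histopathology or by peak ALT or AST elevation over alkaline phosphatase ratio below 2, value counts indexed literature reports.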
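For Hepatotoxicity (chronic liver disease) in this document: chronic liver injury confirmed by histopathology or persistently raised serum aminotransferase activity beyond 6 months, value given as the count of indexed literature references.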
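For Hepatotoxicity (cirrhosis) in this document: value is a count of indexed literature references reporting cirrhosis confirmed by histopathology.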
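For Hepatotoxicity (cytolytic) in this document: human cytolytic liver injury, shown by histopathology or by a ratio above 5 of peak ALT or AST elevation to alkaline phosphatase elevation, value counts indexed references.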
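For Hepatotoxicity (granulomatous hepatitis) in this document: value is a count of indexed literature references reporting granulomatous liver disease confirmed by histopathology.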
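For Hepatotoxicity (malignant tumour) in this document: malignant tumour confirmed by histopathology, value gives the count of indexed literature references reporting it.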
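For Hepatotoxicity (severe hepatitis) in this document: human clinical data: severe hepatitis, meaning potentially life-threatening liver failure or clinically observed cases, the value counts how many indexed literature references report it.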
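For Hepatotoxicity (steatosis) in this document: steatosis confirmed by histopathology, value is the count of indexed references.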

Compound | Hepatotoxicity (moderate) [1] | Hepatotoxicity (acute) [2] | Hepatotoxicity (successful reintroduction) [3] | Hepatotoxicity (time to onset) [4] | Hepatotoxicity (moderate) [5] | Hepatotoxicity (acute) [6] | Hepatotoxicity (cytolytic) [7] | Hepatotoxicity (choleostasis) [8] | Hepatotoxicity (severe hepatitis) [9] | Hepatotoxicity (chronic liver disease) [10] | Hepatotoxicity (cirrhosis) [11] | Hepatotoxicity (granulomatous hepatitis) [12] | Hepatotoxicity (association with vascular disease) [13] | Hepatotoxicity (steatosis) [14] | Hepatotoxicity (malignant tumour) [15] | Hepatotoxicity (benign tumour) [16] | Hepatotoxicity (animal toxicity known) [17] | Hepatotoxicity (comment) [18] | Hepatotoxicity (mechanism) [19] | other results
C[C@H]1O[C@H](O[C@H]2[C@H](O)[C@@H](O)[C@@H](O[C@H]3[C@H](O)[C@@H](O)C(O)O[C@@H]3CO)O[C@@H]2CO)[C@H](O)[C@@H](O)[C@@H]1N[C@H]1C=C(CO)[C@@H](O)[C@H](O)[C@H]1O (stereo partly drawn) [ACARBOSE] | 9.9% | 0% | yes | 1 week - 1.5 years | 6 | 7 | 6 | 0 | 0 | 0 | 0 | 0 | 0 | 0 | 0 | 0 | yes |  |  | 
CC(=O)[C@@]1(O)CC[C@H]2[C@@H]3C=C(Cl)C4=CC(=O)[C@@H]5C[C@@H]5[C@]4(C)[C@H]3CC[C@@]21C [CYPROTERONE] | 20% | 13% |  | 4 days - 10 years | 4 | 21 | 20 | 3 | 13 | 1 | 1 | 0 | 0 | 0 | 5 | 1 | yes | AC_ANTI-N/pCN | Dose-dependant | 
O=C1c2cccc(O)c2C(=O)c2c(O)cccc21 [DANTHRON] | 0% | 0% | yes | 2 days - 1 year | 1 | 0 | 0 | 0 | 0 | 1 | 0 | 0 | 0 | 0 | 0 | 0 | yes |  |  | 
O=c1[nH]cc(F)c(=O)[nH]1 [FLUOROURACIL] | 61.2% | 25% |  | 1 month - 1 year | 15 | 4 | 2 | 1 | 2 | 0 | 1 | 0 | 1 | 4 | 0 | 0 | yes | CHOLANGITE/IAH I/LEVAMISOLE | Dose-dependant, Toxic Metabolite | 
C=COCC(F)(F)F [FLUROXENE] | 30.4% | 0% |  | 1 day - 5 days | 2 | 4 | 3 | 0 | 2 | 0 | 0 | 0 | 0 | 0 | 0 | 0 | yes | I/PHENOBARBITAL/PHENYTOINE | Toxic Metabolite | 
COC1=CC(=O)C[C@@H](C)[C@]12Oc1c(Cl)c(OC)cc(OC)c1C2=O [GRISEOFULVIN] | 50% | 2.8% | yes | 3 days - 4.5 months | 9 | 5 | 1 | 2 | 0 | 0 | 0 | 0 | 0 | 0 | 0 | 0 | yes |  |  | 
CC1(C)S[C@@H]2[C@H](NC(=O)Cc3ccccc3)C(=O)N2[C@H]1C(=O)O [PENICILLIN G] | 13.2% | 0% |  | 0.5 hour - 18 days | 9 | 17 | 5 | 9 | 1 | 1 | 0 | 3 | 0 | 0 | 0 | 0 | yes | CHOLESTASE_PROLONGEE CHOLANGITE AC_ANTI-N | Allergic | 
CC1=C(/C=C/C(C)=C/C=C/C(C)=C/CO)C(C)(C)CCC1 [RETINOL] |  |  |  | 11 days - 17.5 years | 8 | 0 |  |  |  | 26 | 22 |  | 10 | 22 | 0 | 0 | yes | I/ALCOOL |  | Hepatotoxicity (moderate) ([1]; Liver): 33%; Hepatotoxicity (acute) ([2]; Liver): 0%; Hepatotoxicity (mechanism) ([19]; Liver): Dose-dependant; Hepatotoxicity (cytolytic) ([7]; Liver): 0; Hepatotoxicity (choleostasis) ([8]; Liver): 0; Hepatotoxicity (severe hepatitis) ([9]; Liver): 1; Hepatotoxicity (granulomatous hepatitis) ([12]; Liver): 0
CC(=O)N[C@H]1[C@@H](O[C@H]2[C@H](O)[C@@H](O)[C@H](O[C@H]3[C@H](CS(=O)(=O)O)[C@@H](OS(=O)(=O)O)[C@@H](O[C@H]4[C@H](O)[C@@H](OS(=O)(=O)O)C(O)O[C@H]4C(=O)O)O[C@@H]3O)O[C@@H]2C(=O)O)O[C@H](COS(=O)(=O)O)[C@@H](O)[C@@H]1O (stereo partly drawn) [SODIUM HEPARIN] | 90% | 0% |  | 2 days - 2 weeks | 20 | 4 | 3 | 1 | 1 | 0 | 0 | 0 | 0 | 0 | 0 | 0 | yes | RUPTURE_HEPATIQUE | Dose-dependant | 
CN(C/C=C/C#CC(C)(C)C)Cc1cccc2ccccc12 [TERBINAFINE] | 36.7% | 0% |  | 1 week - 6 months | 21 | 23 | 7 | 15 | 3 | 1 | 0 | 0 | 1 | 0 | 0 | 0 | yes | CHOLANGITE DUCTOPENIE CHOLESTASE_PROLONGEE | Reactive metabolite | 
N[C@@H]1C[C@H]1c1ccccc1.N[C@H]1C[C@@H]1c1ccccc1 [TRANYLCYPROMINE] |  |  | yes |  | 0 | 2 |  |  |  | 0 | 0 |  | 0 | 0 | 0 | 0 | yes |  |  | Hepatotoxicity (moderate) ([1]; Liver): 0%; Hepatotoxicity (acute) ([2]; Liver): 0%; Hepatotoxicity (cytolytic) ([7]; Liver): 2; Hepatotoxicity (choleostasis) ([8]; Liver): 2; Hepatotoxicity (severe hepatitis) ([9]; Liver): 0; Hepatotoxicity (granulomatous hepatitis) ([12]; Liver): 0
